Consider three compounds from patent US20050118381A1, “Diimonium salt mixtures, aminium salts mixtures and use thereof” (priority 2002, published 2005).

Common to all, as to assay type: physicochemical
The nature of data set [1]: Moisture heat resistance stability test of near-infrared absorption filter coat film. Conditions: acrylic resin coat film. The method, then:
(§1) 1.2 parts of compound No. 1a (Sample 1X), No. 6a (Sample 2X) and No. 15a (Sample 3X) was each dissolved in 18.8 parts of MEK. To the solution was added 80 parts of a resin solution obtained by dissolving 25 parts of an acrylic resin (Dianal BR-80, available from Mitsubishi Rayon Co., Ltd.) in 75 parts of MEK to prepare a coating solution. The coating solution was applied to a polyester film in a thickness of 2 to 4 μm and dried at 80° C. to obtain the near-infrared absorption filter of the present invention.
(§2) The obtained coat film was subjected to a heat resistance stability test in a hot air dryer at 80° C. for a predetermined time and a moisture heat resistance stability test in a temperature and humidity controlled apparatus under conditions of 60° C. and 95% RH for a predetermined time. In addition, Samples 1X and 2X were subjected to a lightfastness test using a weatherometer (Ci4000, made by Atlas Electric Devices Co.) under conditions of light source output: 0.36 W/m^2, bath temperature: 24° C., black panel temperature: 40° C. and humidity: 30% RH for 50 hours. After the tests, the color of the film was measured by an ultraviolet/visible light spectrophotometer (UV-2100, made by Shimadzu Corporation) to calculate L*, a*, b* values and stability was evaluated from the variation of the b* value. The results of heat resistance test are shown in Table 9, the results of the moisture heat resistance test are shown in Table 10 and the results of the lightfastness test are shown in Table 11.
(§3) Coat films were prepared and evaluated in the same manner except that hexafluoroantimonate of tetrakis{p-di(n-butyl)aminophenyl}phenylenediimonium (Comparative Sample 1X) and hexafluoroantimonate of tetrakis{p-di(3-cyanopropyl)aminophenyl}phenylenediimonium (Comparative Sample 2X) were used instead of the above compounds.

Data set [2] in a line: Lightfastness test of dye film containing aminium salt compound. The protocol: (§4) 0.3 part of cyanine dye (OM-57) was dissolved in 15 parts of tetrafluoropropanol and 0.04 part of compound No. 2b was added to the solution to prepare coating. The obtained coating was spin coated on a polycarbonate substrate to prepare a dye film (Sample 1Z). The obtained dye film was subjected to a lightfastness test using a weatherometer (Ci4000, made by Atlas Electric Devices Co.) under conditions of light source output: 0.36 W/m^2, bath temperature: 24° C., black panel temperature: 40° C. and humidity: 30% RH for 150 hours, by applying light from the substrate side. Then the residual ratio of the cyanine dye was measured by a spectrophotometer.
Further, dye films were prepared and evaluated in the same manner except that compounds of No. 3b (Sample 2Z), No. 4b (Sample 3Z) and No. 7b (Sample 4Z) and compound No. 12b (Sample 5Z) were used instead of compound No. 2b, and the results are shown in Table 13.
For comparison, a dye film was prepared and evaluated in the same manner except that hexafluoroantimonate of tetrakis{p-di(n-butyl)aminophenyl}phenylenediimonium (Comparative Sample 1Z) was used instead of compound No. 2b.

Data set [3] is described as follows: Lightfastness test of dye film containing diimonium salt compound. The method, then:
as §4, with “2a” for “2b”, “1Y).” for “1Z).”, “50” for “150”
Further, dye films were prepared and evaluated in the same manner except that compounds of No. 3a (Sample 2Y), No. 7a (Sample 3Y) and No. 10a (Sample 4Y), compounds of No. 12a (Sample 5Y) and No. 13a (Sample 6Y) and compound No. 19a (Sample 7Y) were used instead of compound No. 2a, and the results are shown in Table 12.
For comparison, a dye film was prepared and evaluated in the same manner except that hexafluoroantimonate of tetrakis{p-di(n-butyl)aminophenyl}phenylenediimonium (Comparative Sample 1Y) was used instead of compound No. 2a.

A short description of data set [4]: Lightfastness test of near-infrared absorption filter coat film. Conditions: acrylic resin coat film. The method, then:
as §1
The obtained coat film was subjected to a heat resistance stability test in a hot air dryer at 80° C. for a predetermined time and a moisture heat resistance stability test in a temperature and humidity controlled apparatus under conditions of 60° C. and 95% RH for a predetermined time. […] After the tests, the color of the film was measured by an ultraviolet/visible light spectrophotometer (UV-2100, made by Shimadzu Corporation) to calculate L*, a*, b* values and stability was evaluated from the variation of the b* value. […]
as §3

Data set [5] can be described thus: Heat resistance stability test of near-infrared absorption filter coat film. The method, then:
as §1, §2, §3

Data set [6] can be described thus: Solubility test of aminium salt compound. The protocol: Solubility of Compounds No. 1b, No. 3b, No. 4b, No. 6b, No. 7b, No. 12b, No. 13b, No. 14b and No. 15b obtained in the above Examples in diacetone alcohol (DAA), methyl ethyl ketone (MEK), tetrahydrofuran (THF) and methylcellosolve was measured. Measurement of solubility was conducted in the same manner except that hexafluoroantimonate of tetrakis{p-di(3-cyanopropyl)aminophenyl}phenyleneaminium (Comparative Sample 2) and hexafluorophosphate thereof (Comparative Sample 3) were used instead of the above compounds.

Data set [7] can be described thus: Solubility test of diimonium salt compound. The protocol:
Solubility of compounds No. 1a, No. 3a, No. 6a, No. 2a, No. 7a, No. 13a and No. 12a obtained in the above Examples in diacetone alcohol (DAA), methyl ethyl ketone (MEK) and cyclohexanone was measured. Measurement of solubility was conducted in the same manner except that hexafluoroantimonate of tetrakis{p-di(3-cyanopropyl)aminophenyl}phenylenediimonium (Comparative Sample 1) was used instead of the above compounds.

Where [8] appears, read: dye film: 0.3 part OM-57 + 0.04 part compound on polycarbonate, before irradiation.

For `CCCCN(CCCC)c1ccc([N+](=C2C=CC(=[N+](c3ccc(N(CCCC)CCCC)cc3)c3ccc(N(CCCC)CCCC)cc3)C=C2)c2ccc(N(CCCC)CCCC)cc2)cc1.[F][Sb-]([F])([F])([F])([F])[F].[F][Sb-]([F])([F])([F])([F])[F]` [Comparative Sample 1X, hexafluoroantimonate of tetrakis{p-di(n-butyl)aminophenyl}phenylenediimonium], the “b* value after 4 days” value in data set [1] (60° C. and 95% RH, 4 days) amounted to 4.23; in data set [5] (acrylic resin coat film, hot air dryer 80° C., 4 days), 3.65. Besides, the “b* value after 7 days” value in data set [1] (60° C. and 95% RH, 7 days) was 4.69; in data set [5] (acrylic resin coat film, hot air dryer 80° C., 7 days), 3.93. Also, the “b* value after 14 days” value in data set [1] (60° C. and 95% RH, 14 days) is 5.55; in data set [5] (acrylic resin coat film, hot air dryer 80° C., 14 days) it was 4.30. Besides, the “b* value initial stage” value in data set [1] (before 60° C. and 95% RH) is on record as 2.85; in data set [4] (before weatherometer) it was 2.85; in data set [5] (acrylic resin coat film on polyester film, before hot air dryer 80° C.), 2.85. Moreover, the “residual ratio of cyanine dye initial stage” value in data set [2] (setting [8]) and in data set [3] (setting [8]) was 100% each time. The “residual ratio of cyanine dye after 150 hours” value in data set [2] (dye film: 0.3 part OM-57 + 0.04 part compound, weatherometer 0.36 W/m^2, 150 hours) was 29%. Further, the “residual ratio of cyanine dye after 50 hours” value in data set [3] (dye film: 0.3 part OM-57 + 0.04 part compound, weatherometer 0.36 W/m^2, 50 hours) was 69%. In addition, in data set [4] (weatherometer 0.36 W/m^2, 24° C., 30% RH, 50 hours), the “b* value after 50 hours” value is reported as 6.49.
Take “hexafluoroantimonate of tetrakis{p-di(3-cyanopropyl)aminophenyl}phenyleneaminium [Comparative Sample 2]”: the “solubility DAA” value in data set [6] (in diacetone alcohol (DAA)) was 1.2 wt %. Also, the “solubility MEK” value in data set [6] (in methyl ethyl ketone (MEK)) was found to be 1.7 wt %. For the same compound, the “solubility THF” value in data set [6] (in tetrahydrofuran (THF)) is reported as “insoluble”.
With “hexafluoroantimonate of tetrakis{p-di(3-cyanopropyl)aminophenyl}phenylenediimonium [Comparative Sample 1]”, the solubility cyclohexane result in data set [7] (column head cyclohexane (text: cyclohexanone)) is “insoluble”. In addition, in data set [7] (in diacetone alcohol (DAA)), the “solubility DAA” value is reported as “insoluble”. Also, the “solubility MEK” value in data set [7] (in methyl ethyl ketone (MEK)) is “insoluble”. Also, the “solubility in MEK (film preparation)” value in data set [5] (1.2 parts in 18.8 parts of MEK, impossible to prepare a film) is reported as “poor”.
